Like-named read-outs stand apart in the source and are kept apart here. A value given as a limit tells only on which side of the number the result lay.

The target of assay [1] is α-glucosidase (fungal source from Saccharomyces cerevisiae). Put plainly: α-Glucosidase inhibitory assay (PNPG). Format: biochemical. The arrangement: IC50 ± SEM (α-glucosidase): unit not given beside the values. The following applies: for IC50 ± SEM (α-glucosidase): Table 2, repeats Table 1, unit not given; for α-Glucosidase IC50: maximum concentration 200 µg/mL, means ± SEM of three measurements.

Assay [2] concerns the target AChE (electric eel source) (Electrophorus electricus, UniProt O42275). The assay is described as follows: biochemical.
Assay [3] deals with BChE (horse serum source) (Equus caballus, UniProt P81908). The assay is described as follows: biochemical.
Chain of BChE (horse serum source) (P81908 whole entry): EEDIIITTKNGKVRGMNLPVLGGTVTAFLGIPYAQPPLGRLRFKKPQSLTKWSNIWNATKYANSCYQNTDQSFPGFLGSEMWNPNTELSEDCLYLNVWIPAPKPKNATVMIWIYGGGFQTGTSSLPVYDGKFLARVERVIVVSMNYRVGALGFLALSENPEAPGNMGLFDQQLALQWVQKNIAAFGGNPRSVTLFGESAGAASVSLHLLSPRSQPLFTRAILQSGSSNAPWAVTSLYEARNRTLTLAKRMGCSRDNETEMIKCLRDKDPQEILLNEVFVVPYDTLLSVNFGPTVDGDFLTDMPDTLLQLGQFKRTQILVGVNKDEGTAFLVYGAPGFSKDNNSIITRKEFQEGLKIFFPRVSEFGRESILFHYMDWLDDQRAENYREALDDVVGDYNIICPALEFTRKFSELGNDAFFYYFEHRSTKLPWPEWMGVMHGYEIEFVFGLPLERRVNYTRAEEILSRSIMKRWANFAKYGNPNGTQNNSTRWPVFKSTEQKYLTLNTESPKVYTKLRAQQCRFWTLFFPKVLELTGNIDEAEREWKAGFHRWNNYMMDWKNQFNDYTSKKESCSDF
Text: A standard spectrophotometric method was used to measure the anticholinesterase activity using both the butyrylcholinesterase (BChE) and acetylcholinesterase (AChE) enzymes, as described elsewhere but with slight modifications [59, 60]. […] The substrates used in the AChE and BChE assays were acetylthiocholine iodide and butyrylthiocholine chloride, respectively. DTNB (5,5′-Dithio-bis(2-nitrobenzoic) acid) was used for monitoring the cholinesterase activity.
For assay [4], the target named is T1, α-amylase (porcine pancreas source) (Sus scrofa, UniProt P00690).
T1 construct: A porcine pancreas source of α-amylase (50 µL), 25 µL of the samples; from tissue; host or cells: porcine pancreas
T1 sequence (P00690 16-511): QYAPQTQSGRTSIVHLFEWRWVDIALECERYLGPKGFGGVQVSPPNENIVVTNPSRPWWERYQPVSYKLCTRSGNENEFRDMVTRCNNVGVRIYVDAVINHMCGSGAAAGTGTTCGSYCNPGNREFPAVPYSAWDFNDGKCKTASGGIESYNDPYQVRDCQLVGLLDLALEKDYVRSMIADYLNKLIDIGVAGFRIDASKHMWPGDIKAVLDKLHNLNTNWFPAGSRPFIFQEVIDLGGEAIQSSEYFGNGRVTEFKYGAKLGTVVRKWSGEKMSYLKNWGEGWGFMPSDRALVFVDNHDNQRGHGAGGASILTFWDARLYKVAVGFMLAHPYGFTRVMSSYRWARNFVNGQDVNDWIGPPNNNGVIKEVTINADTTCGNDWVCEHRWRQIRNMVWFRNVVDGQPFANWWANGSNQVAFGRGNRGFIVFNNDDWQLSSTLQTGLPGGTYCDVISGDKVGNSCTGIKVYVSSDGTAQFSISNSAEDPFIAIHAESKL
The assay is described as follows: α-Amylase inhibitory assay (starch iodine protocol). Type of assay: biochemical.
Experimental: In the α-amylase inhibition assay, the starch iodine protocol was used with few changes [62, 63]. A porcine pancreas source of α-amylase (50 µL), 25 µL of the samples, 6 mM NaCl, and phosphate buffer (pH 6.9) solution were mixed in a 96-well microplate and incubated at 37 °C for 10 min. Then, 50 µL of 0.05% starch solution was added to the reaction mixture and further incubated under the same conditions, after which Lugol (100 µL) and HCl (0.1 M, 25 µL) solutions were added to complete the reaction.

Setting [5] is: evaluated up to 100 µg/mL, means ± SEM of three measurements, read-out: AChE IC50 (converted).
Setting [6] is: evaluated up to 100 µg/mL, means ± SEM of three measurements, read-out: BChE IC50 (converted).
Where [7] appears, read: Table 3, repeats Table 1, unit inferred, read-out: IC50 ± SEM (Butyrylcholinesterase).
The mark [8] stands for this setting: Table 3, repeats Table 1, unit inferred, read-out: IC50 ± SEM (Acetylcholinesterase).
[9] abbreviates: read-out: IC50 ± SEM (α-amylase), Table 2, repeats Table 1, unit inferred.

Chain of AChE (electric eel source) (O42275 24-633): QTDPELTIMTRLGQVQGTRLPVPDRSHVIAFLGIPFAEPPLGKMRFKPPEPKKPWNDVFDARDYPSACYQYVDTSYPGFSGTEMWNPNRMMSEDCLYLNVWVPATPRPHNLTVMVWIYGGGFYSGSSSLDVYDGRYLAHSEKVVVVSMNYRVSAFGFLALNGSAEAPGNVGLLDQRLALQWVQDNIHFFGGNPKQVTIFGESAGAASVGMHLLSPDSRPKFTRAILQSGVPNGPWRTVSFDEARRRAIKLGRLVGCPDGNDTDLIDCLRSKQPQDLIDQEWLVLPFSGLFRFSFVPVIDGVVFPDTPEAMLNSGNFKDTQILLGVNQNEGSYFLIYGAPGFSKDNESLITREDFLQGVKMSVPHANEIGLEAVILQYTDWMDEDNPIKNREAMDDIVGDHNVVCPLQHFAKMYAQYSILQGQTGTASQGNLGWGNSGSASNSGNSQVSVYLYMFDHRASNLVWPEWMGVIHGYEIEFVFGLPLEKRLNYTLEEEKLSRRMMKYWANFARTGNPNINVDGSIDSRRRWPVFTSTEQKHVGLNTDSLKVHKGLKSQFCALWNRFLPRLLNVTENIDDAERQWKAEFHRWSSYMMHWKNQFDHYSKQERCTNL

As a reminder, the IC50 is the concentration that gives 50% inhibition. Regarding `COc1c(O)cc2c(=O)oc3c(OC)c(O)cc4c(=O)oc1c2c34` [Compound 1, 3,3′-di-O-methyl ellagic acid], in assay [1], the “IC50 ± SEM (α-glucosidase)” value stood at 74.18 ± 0.29. Moreover, the “α-Glucosidase IC50” value in assay [1] was 74.18 ± 0.29 µg/mL. In addition, the IC50 in assay [2] (setting [5]) was 142 µM; in assay [3] (setting [6]) it was 153 µM; in assay [4], 203 µM.

In the case of `COc1cc2c(=O)oc3c(OC)c(O[C@@H]4OC[C@@H](O)[C@H](O)[C@H]4O)cc4c(=O)oc(c1OC)c2c34` [Compound 2, 3,3′,4′-tri-O-methyl ellagic acid-4-O-β-D-xylopyranoside], the “IC50 ± SEM (α-glucosidase)” value in assay [1] worked out at 121.51 ± 0.65. The “α-Glucosidase IC50” value in assay [1] was found to be 121.51 ± 0.65 µg/mL. The IC50 was 129 µM in assay [2] (setting [5]), more than 210 µM in assay [3] (setting [7]), more than 210 µM in assay [3] (setting [6]) and 216 µM in assay [4].

Turning to `COc1cc2c(=O)oc3c(OC)c(O[C@@H]4O[C@H](CO)[C@@H](O)[C@H](O)[C@H]4O)cc4c(=O)oc(c1OC)c2c34` [Compound 3, 3,3′,4′-tri-O-methyl ellagic acid-4-O-β-D-glucopyranoside], the “IC50 ± SEM (α-glucosidase)” value in assay [1] is given as 137.51 ± 0.81. In addition, the “α-Glucosidase IC50” value in assay [1] worked out at 137.51 ± 0.81 µg/mL. For the same compound, the figures for the IC50 in assay [2] (setting [5]), in assay [3] (setting [6]) and in assay [4] were 118 µM, 149 µM and 217 µM, respectively.

`COc1c(O)cc2c(=O)oc3c(OC)c(O[C@@H]4O[C@H](CO)[C@@H](O)[C@H](O)[C@H]4O)cc4c(=O)oc1c2c34` [Compound 4, 3,3′-di-O-methyl ellagic acid-4-O-β-D-glucopyranoside]: the “IC50 ± SEM (α-glucosidase)” value in assay [1] is given as 97.75 ± 0.49. In assay [1], the “α-Glucosidase IC50” value stood at 97.75 ± 0.49 µg/mL. In addition, the IC50 in assay [2] (setting [5]) is 129 µM; in assay [3] (setting [6]), 182 µM; in assay [4], 185 µM.

On to `CC1OC(Oc2c(-c3cc(O)c(O)c(O)c3)oc3cc(O)cc(O)c3c2=O)C(O)C(O)C1O` (stereo not drawn) [Compound 5, myricetin-3-O-rhamnoside], for which the “IC50 ± SEM (α-glucosidase)” value in assay [1] was 69.02 ± 0.65. Also, in assay [1], the “α-Glucosidase IC50” value came out at 69.02 ± 0.65 µg/mL. In addition, the half-inhibitory concentration (IC50) in assay [2] (setting [8]) is more than 215 µM; in assay [2] (setting [5]) it was more than 215 µM; in assay [3], more than 215 µM; in assay [3] (read-out: IC50 ± SEM (Butyrylcholinesterase), Table 3, repeats Table 1, unit inferred) it was more than 215 µM; in assay [4], 140 µM.

In the case of `O=C(O)C1=C[C@@H](O)[C@@H](O)[C@H](O)C1` [Compound 6, shikimic acid], the “IC50 ± SEM (α-glucosidase)” value in assay [1] is on record as more than 200. The “α-Glucosidase IC50” value in assay [1] is more than 200 µg/mL. The IC50 in assay [2] (setting [5]) is 317 µM; in assay [3] it was 337 µM; in assay [4] it was more than 1150 µM; in assay [4] (setting [9]), more than 1150 µM.

Consider `CC1(C)CC[C@]2(C(=O)O)CC[C@]3(C)C(=CC[C@@H]4[C@@]5(C)C[C@@H](O)[C@H](O)[C@@](C)(CO)[C@@H]5CC[C@]43C)[C@@H]2[C@@H]1O` [Compound 7, arjungenin], for which the “IC50 ± SEM (α-glucosidase)” value in assay [1] is reported as 192.17 ± 0.78. Moreover, the “α-Glucosidase IC50” value in assay [1] amounted to 192.17 ± 0.78 µg/mL. The IC50 in assay [2] (setting [5]) was 106 µM; in assay [3] (setting [7]), more than 198 µM; in assay [3] (setting [6]) it was more than 198 µM; in assay [4], 369 µM.

As to `CC1(C)CC[C@]2(C(=O)O)CC[C@]3(C)C(=CC[C@@H]4[C@@]5(C)C[C@@H](O)[C@H](O)[C@@](C)(CO)[C@@H]5[C@H](O)C[C@]43C)[C@@H]2C1` [Compound 8, terminolic acid], the “IC50 ± SEM (α-glucosidase)” value in assay [1] came out at 155.84 ± 0.31. Moreover, the “α-Glucosidase IC50” value in assay [1] was 155.84 ± 0.31 µg/mL. In addition, the IC50 was 130 µM in assay [2] (setting [5]), more than 198 µM in assay [3] (setting [7]), more than 198 µM in assay [3] (setting [6]) and 289 µM in assay [4].

For the compound `CC1(C)CCC2(C(=O)OC3OC(CO)C(O)C(O)C3O)CCC3(C)C(=CCC4C5(C)CC(O)C(O)C(C)(C)C5CCC43C)C2C1O` (stereo not drawn) [Compound 9, 24-deoxysericoside], the “IC50 ± SEM (α-glucosidase)” value in assay [1] was more than 200. For the same compound, the “α-Glucosidase IC50” value in assay [1] was more than 200 µg/mL. Besides, the IC50 is more than 154 µM in assay [2] (setting [8]); more than 154 µM in assay [2] (setting [5]); more than 154 µM in assay [3] (setting [7]); more than 154 µM in assay [3] (setting [6]); more than 307 µM in assay [4]; more than 307 µM in assay [4] (setting [9]).

For the compound `CC1(C)CC[C@]2(C(=O)O[C@@H]3O[C@H](CO)[C@@H](O)[C@H](O)[C@H]3O)CC[C@]3(C)C(=CC[C@@H]4[C@@]5(C)C[C@@H](O)[C@H](O)[C@@](C)(CO)[C@@H]5CC[C@]43C)[C@@H]2[C@@H]1O` [Compound 10, arjunglucoside I], in assay [1], the “IC50 ± SEM (α-glucosidase)” value is on record as more than 200. Also, the “α-Glucosidase IC50” value in assay [1] is more than 200 µg/mL. For the same compound, the IC50 in assay [2] (setting [5]) was 148 µM; in assay [3] (setting [7]) it was more than 150 µM; in assay [3] (setting [6]), more than 150 µM; in assay [4] it was more than 300 µM; in assay [4] (setting [9]), more than 300 µM.

As to `CC1(C)CC[C@]2(C(=O)O[C@@H]3O[C@H](CO)[C@@H](O)[C@H](O)[C@H]3O)CC[C@]3(C)C(=CC[C@@H]4[C@@]5(C)C[C@@H](O)[C@H](O)[C@@](C)(CO)[C@@H]5[C@H](O)C[C@]43C)[C@@H]2C1` [Compound 11, chebuloside II], in assay [1], the “IC50 ± SEM (α-glucosidase)” value is more than 200. The “α-Glucosidase IC50” value in assay [1] was more than 200 µg/mL. Besides, the IC50 in assay [2] (setting [8]) is more than 150 µM; in assay [2] (setting [5]), more than 150 µM; in assay [3] (setting [7]), more than 150 µM; in assay [3] (setting [6]), more than 150 µM; in assay [4], more than 300 µM; in assay [4] (setting [9]), more than 300 µM.

For the origin of these results see paper PMC11174011, “In Vitro and Molecular Docking Evaluation of the Anticholinesterase and Antidiabetic Effects of Compounds from Terminalia macroptera Guill. & Perr. (Combretaceae)” (Molecules, 2024).
